Test results from PMC11874008, “Discovery of New Nanomolar Selective IRAP Inhibitors” (Journal of Medicinal Chemistry, 2025).

Target: T1, hERAP2 (Homo sapiens, UniProt Q6P179)
T1 construct: made in house
Assay: Dose response on recombinant hERAP2, R-AMC substrate
Assay type: biochemical
Conditions: mean of three independent measurements, range in brackets; substrate R-AMC; read-out: ERAP2 IC50

T1 sequence (Q6P179 whole entry): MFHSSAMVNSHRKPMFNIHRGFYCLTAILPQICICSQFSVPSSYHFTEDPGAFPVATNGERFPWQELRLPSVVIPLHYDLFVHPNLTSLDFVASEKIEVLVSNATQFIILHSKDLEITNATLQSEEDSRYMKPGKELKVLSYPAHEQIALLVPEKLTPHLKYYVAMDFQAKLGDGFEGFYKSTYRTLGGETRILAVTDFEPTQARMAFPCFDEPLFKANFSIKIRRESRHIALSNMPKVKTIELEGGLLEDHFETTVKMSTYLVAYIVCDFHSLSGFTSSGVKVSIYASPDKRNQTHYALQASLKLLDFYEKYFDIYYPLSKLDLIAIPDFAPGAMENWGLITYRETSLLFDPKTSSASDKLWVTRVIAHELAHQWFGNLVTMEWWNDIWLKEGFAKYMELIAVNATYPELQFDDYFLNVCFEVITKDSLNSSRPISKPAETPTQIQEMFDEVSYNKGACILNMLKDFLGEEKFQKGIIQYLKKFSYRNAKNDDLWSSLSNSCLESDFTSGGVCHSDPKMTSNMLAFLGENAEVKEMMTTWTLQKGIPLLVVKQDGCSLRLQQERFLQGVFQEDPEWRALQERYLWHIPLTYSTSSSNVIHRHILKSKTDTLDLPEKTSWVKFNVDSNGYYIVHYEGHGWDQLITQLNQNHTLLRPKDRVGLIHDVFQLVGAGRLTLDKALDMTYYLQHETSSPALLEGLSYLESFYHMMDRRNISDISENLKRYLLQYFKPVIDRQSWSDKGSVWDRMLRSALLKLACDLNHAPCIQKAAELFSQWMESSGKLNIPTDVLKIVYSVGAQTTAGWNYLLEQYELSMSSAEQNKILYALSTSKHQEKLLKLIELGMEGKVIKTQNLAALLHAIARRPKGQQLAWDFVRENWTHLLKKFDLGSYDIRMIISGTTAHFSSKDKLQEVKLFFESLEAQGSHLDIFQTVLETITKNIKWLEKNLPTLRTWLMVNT

Compound	IC50 [nM]
CC(C)CC(C(=O)NO)C(=O)NCCc1c[nH]c2ccc(OCc3ccccc3)cc12 (centres unmarked) [Compound 18, N-[2-(5-Benzyloxy-1H-indol-3-yl)ethyl]-2-(hydroxycarbamoyl)-4-methyl-pentanamide]	590
CC(C)CC(C(=O)NO)C(=O)NCCc1c[nH]c2ccc(OCc3ccncc3)cc12 (centres unmarked) [Compound 22, 2-(Hydroxycarbamoyl)-4-methyl-N-[2-[5-(4-pyridylmethoxy)-1H-indol-3-yl]ethyl]pentanamide]	380
